Laboratory results reported in patent publication US10683293B2, “Optionally fused heterocyclyl-substituted derivatives of pyrimidine useful for the treatment of inflammatory, metabolic, oncologic and autoimmune diseases” (NUEVOLUTION A/S, priority 2014, dated 2020).

Assays:
[1] = target: T1, ligand binding domain of human RORγ (Homo sapiens, UniProt P51449); assay: RORγ Reporter Assay (Gal4); format: cell-based; settings: for inhibition at 1 µM: HEK-293T, read-out: Gal4 activity range @ 1 μM (% inhibition); for Gal4 activity range @ 0.1 μM (% inhibition): RORγ Reporter Assay (Gal4), HEK293t reporter cells, compound at 0.1 μM, values are activity range bounds
T1 construct: host or cells: HEK293t
T1 sequence (P51449 269-508 limits assumed): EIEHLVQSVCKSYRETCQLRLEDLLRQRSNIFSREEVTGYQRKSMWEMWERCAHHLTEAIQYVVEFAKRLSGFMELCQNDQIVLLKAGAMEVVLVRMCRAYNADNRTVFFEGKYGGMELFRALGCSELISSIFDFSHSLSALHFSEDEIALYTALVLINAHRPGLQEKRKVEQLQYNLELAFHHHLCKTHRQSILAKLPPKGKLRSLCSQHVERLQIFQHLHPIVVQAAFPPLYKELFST
Procedure, shortened: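 HEK293t cells expressing Gal4 DBD–human RORγ LBD hybrid with Gal4-UAS firefly luciferase reporter; compounds at final 1,000 nM and 100 nM (0.1% DMSO), triplicate, medium with 10% charcoal-stripped FBS, 24 h at 37 °C. Luminescence read; percent reduction of RORγ activity calculated versus vehicle-only wells.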

[2] = target: T2, human RORγt (Ligand Binding Domain) (Homo sapiens, UniProt P51449); assay: Fluorescence Polarization (FP) Assay; settings: 100 nM human RORγt LBD, 25 nM TAMRA probe, values are activity range bounds
T2 construct: purchased Crelux (Planegg, Germany) batch no PC5032-1
T2 sequence (P51449 269-508 limits assumed): T1 sequence (P51449 269-508 limits assumed)
Procedure, shortened: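 In vitro fluorescence polarization binding assay on the RORγt ligand-binding pocket. A TAMRA-labelled RORγt ligand probe (MW 910 g/mol) was used, with DMSO as negative control.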

[3] = 1 μM test compound, HEK293t RORγ reporter cells, 24 hour

Structure (SMILES)	inhibition at 1 µM [1, 3]	Gal4 activity range @ 0.1 μM (% inhibition) [1]	IC50 [2]	Gal4 activity range @ 1 μM (% inhibition) ([1]; 1 μM test compound, HEK293t RORγ reporter cells, 24 hour, 1 µM)
CC(C)c1ccc(CN(c2ncnc(NCc3ccc(CC(N)=O)cc3)c2F)C2CC2)cn1 [Example A97, 2-[4-[[[6-[cyclopropyl-[(6-isopropyl-3-pyridyl)methyl]amino]-5-fluoro-pyrimidin-4-yl]amino]methyl]phenyl]acetamide]	> 80%	>50 % inhibition	< 500 nM	–
NC(=O)Cc1ccc(CNc2ncnc(N(Cc3cnc(C(F)(F)F)nc3)C3CC3)c2F)cc1 [Example A98, 2-[4-[[[6-[cyclopropyl-[[2-(trifluoromethyl)pyrimidin-5-yl]methyl]amino]-5-fluoro-pyrimidin-4-yl]amino]methyl]phenyl]acetamide]	> 80%	>50 % inhibition	< 500 nM	–
NC(=O)Cc1ccc(CNc2ncnc(N(Cc3cccc(C(F)(F)F)c3)C3CC3)c2F)cc1 [Example A101, 2-[4-[[[6-[cyclopropyl-[[3-(trifluoromethyl)phenyl]methyl]amino]-5-fluoro-pyrimidin-4-yl]amino]methyl]phenyl]acetamide]	> 50%	>50 % inhibition	< 500 nM	–
CC(c1ccc(C(F)(F)F)nc1)N(c1ncnc(NCc2ccc(CC(N)=O)cc2)c1F)C1CC1 (stereo not shown) [Example A103, 2-[4-[[[6-[cyclopropyl-[1-[6-(trifluoromethyl)-3-pyridyl]ethyl]amino]-5-fluoro-pyrimidin-4-yl]amino]methyl]phenyl]acetamide]	> 80%	>0 % inhibition	< 1000 nM	–
CC(c1ccc(C(F)(F)F)cn1)N(c1ncnc(NCc2ccc(CC(N)=O)cc2)c1F)C1CC1 (stereo not shown) [Example A104, 2-[4-[[[6-[cyclopropyl-[1-[5-(trifluoromethyl)-2-pyridyl]ethyl]amino]-5-fluoro-pyrimidin-4-yl]amino]methyl]phenyl]acetamide]	> 80%	>50 % inhibition	< 1000 nM	–
NC(=O)Cc1ccc(CNc2cc(N(Cc3ccc(C(F)(F)F)cc3)C3CC3)ncn2)cc1 [Example A107, 2-[4-[[[6-[cyclopropyl-[[4-(trifluoromethyl)phenyl]methyl]amino]pyrimidin-4-yl]amino]methyl]phenyl]acetamide]	> 50%	>0 % inhibition	< 1000 nM	–
CS(=O)(=O)c1ccc(CNc2ncnc(N(Cc3ccc(C(F)(F)F)cn3)C3CC3)c2F)cn1 [Example A108, N4-cyclopropyl-5-fluoro-N6-[(6-methylsulfonyl-3-pyridyl)methyl]-N4-[[5-(trifluoromethyl)-2-pyridyl]methyl]pyrimidine-4,6-diamine]	> 80%	>20 % inhibition	< 2000 nM	–
CS(=O)(=O)Nc1ncc(CNc2ncnc(N(Cc3ccc(C(F)(F)F)cc3)C3CC3)c2F)cc1F [Example A109, N-[5-[[[6-[cyclopropyl-[[4-(trifluoromethyl)phenyl]methyl]amino]-5-fluoro-pyrimidin-4-yl]amino]methyl]-3-fluoro-2-pyridyl]methanesulfonamide]	> 80%	>0 % inhibition	< 500 nM	–
CS(=O)(=O)c1ccc(CNc2ncnc(N(Cc3ccc(C(F)(F)F)nc3)C3CC3)c2F)cn1 [Example A110, N4-cyclopropyl-5-fluoro-N6-[(6-methylsulfonyl-3-pyridyl)methyl]-N4-[[6-(trifluoromethyl)-3-pyridyl]methyl]pyrimidine-4,6-diamine]	> 50%	>0 % inhibition	< 2000 nM	–
COc1ccc2cc(CN(C)c3ncnc(NCc4ccc(CC(N)=O)cc4)c3F)ccc2c1 [Example A120, 2-[4-[[[5-fluoro-6-[(6-methoxy-2-naphthyl)methyl-methyl-amino]pyrimidin-4-yl]amino]methyl]phenyl]acetamide]	> 80%	>20 % inhibition	< 500 nM	–
CCCn1nc(C)cc1CN(C)c1ncnc(NCc2ccc(CC(N)=O)cc2)c1F [Example A124, 2-[4-[[[5-fluoro-6-[methyl-[(5-methyl-2-propyl-pyrazol-3-yl)methyl]amino]pyrimidin-4-yl]amino]methyl]phenyl]acetamide]	–	>0 % inhibition	< 500 nM	>20%
Cc1nc(C)c(C(C)N(C)c2ncnc(NCc3ccc(CC(N)=O)cc3)c2F)s1 (stereo not shown) [Example A125, 2-[4-[[[6-[1-(2,4-dimethylthiazol-5-yl)ethyl-methyl-amino]-5-fluoro-pyrimidin-4-yl]amino]methyl]phenyl]acetamide]	> 50%	>0 % inhibition	< 500 nM	–
Cc1ccc(CN(C)c2ncnc(NCc3ccc(CC(N)=O)cc3)c2F)c(C)c1 [Example A138, 2-[4-[[[6-[(2,4-dimethylphenyl)methyl-methyl-amino]-5-fluoro-pyrimidin-4-yl]amino]methyl]phenyl]acetamide]	> 20%	>0 % inhibition	< 500 nM	–
CN(Cc1cccc(-n2cccn2)c1)c1ncnc(NC[C@H]2CC[C@H](NS(=O)(=O)C(F)(F)F)CC2)c1F [Example A142, 1,1,1-trifluoro-N-[4-[[[5-fluoro-6-[methyl-[(3-pyrazol-1-ylphenyl)methyl]amino]pyrimidin-4-yl]amino]methyl]cyclohexyl] methanesulfonamide]	> 50%	>0 % inhibition	< 500 nM	–
CN(Cc1cccc(-n2cccn2)c1)c1ncnc(NCC2CCN(S(C)(=O)=O)CC2)c1F [Example A143, 5-fluoro-N6-methyl-N4-[(1-methylsulfonyl-4-piperidyl)methyl]-N6-[(3-pyrazol-1-ylphenyl)methyl]pyrimidine-4,6-diamine]	> 80%	>20 % inhibition	< 500 nM	–
CCN(CC1COc2ccccc2O1)c1ncnc(NCc2ccc(CC(N)=O)cc2)c1F (stereo not shown) [Example A145, 2-[4-[[[6-[2,3-dihydro-1,4-benzodioxin-3-ylmethyl(ethyl)amino]-5-fluoro-pyrimidin-4-yl]amino]methyl]phenyl]acetamide]	> 50%	>0 % inhibition	< 500 nM	–
CS(=O)(=O)c1ccc(CCNc2ncnc(N(Cc3ccc(C(F)(F)F)cc3)C3CC3)c2F)cc1 [Example A147, N4-cyclopropyl-5-fluoro-N6-[2-(4-methylsulfonylphenyl)ethyl]-N4-[[4-(trifluoromethyl)phenyl]methyl] pyrimidine-4,6-diamine]	> 80%	>50 % inhibition	< 500 nM	–
CCCn1nc(C)cc1CN(C)c1ncnc(NCC2CCN(S(C)(=O)=O)CC2)c1F [Example A148, 5-fluoro-N4-methyl-N4-[(5-methyl-2-propyl-pyrazol-3-yl)methyl]-N6-[(1-methylsulfonyl-4-piperidyl)methyl]pyrimidine-4,6-diamine]	> 20%	>0 % inhibition	< 500 nM	–
CCCn1nc(C)cc1CN(C)c1ncnc(NCC2CCN(S(=O)(=O)C(F)F)CC2)c1F [Example A149, N6-[[1-(difluoromethylsulfonyl)-4-piperidyl]methyl]-5-fluoro-N4-methyl-N4-[(5-methyl-2-propyl-pyrazol-3-yl)methyl]pyrimidine-4,6-diamine]	> 20%	–	< 500 nM	–
CCCn1nc(C)cc1CN(C)c1ncnc(NCc2ccc(CC(=O)O)cc2)c1F [Example A150, 2-[4-[[[5-fluoro-6-[methyl-[(5-methyl-2-propyl-pyrazol-3-yl)methyl]amino]pyrimidin-4-yl]amino]methyl]phenyl]acetic acid]	> 20%	–	< 2000 nM	–
CN(C)CCNC(=O)CC1(CNc2ncnc(N(Cc3ccc(C(F)(F)F)cc3)C3CC3)c2F)CCOCC1 [Example A151, 2-[4-[[[6-[cyclopropyl-[[4-(trifluoromethyl)phenyl]methyl]amino]-5-fluoro-pyrimidin-4-yl]amino]methyl]tetrahydropyran-4-yl]-N-(2-dimethylaminoethyl)acetamide]	> 50%	>0 % inhibition	< 1000 nM	–
NC(=O)Cc1ccc(CNc2ncnc3c2ccn3Cc2ccc(C(F)(F)F)cc2)cc1 [Example A164, 2-[4-[[[7-[[4-(trifluoromethyl)phenyl]methyl]pyrrolo[2,3-d]pyrimidin-4-yl]amino]methyl]phenyl]acetamide]	> 50%	>20 % inhibition	< 1000 nM	–
